{
  "source": "patent US20160361342A1",
  "about": "“USE OF ALGINATE OLIGOMERS IN THE TREATMENT OF CYSTIC FIBROSIS AND OTHER CONDITIONS ASSOCIATED WITH DEFECTIVE CFTR ION CHANNEL FUNCTION” (ALGIPHARAMA AS, priority 2014, published 2016)",
  "origin": "cited, not measured here",
  "system": "ileum explants from mutant mice",
  "details": "apical medium supplemented with sodium bicarbonate at levels predicted to be reached by wild type CFTR",
  "data": [
    {"smiles": "O=C([O-])O.[Na+]", "note": "[sodium bicarbonate]", "values": [
      {"measurement": "attached mucus phenotype", "value": "can be reversed"}
    ]}
  ]
}
